# Experimental data taken from patent publication US20250009902A1, “ARTIFICIAL ENZYME-BACTERIA SYSTEM AND USES THEREOF” (NATIONAL UNIVERSITY OF SINGAPORE, priority 2021, published 2025).
# Columns and labels:
# HT-29 cells [1] = assay: HT-29 cell viability, MTT assay, with or without H2O2; settings: 200 μM H2O2, MTT; H2O2 alone approximately 20%; FIG. 4k
# Experimental: (§1) For the protection of cells from H2O2 induced oxidative stress, different concentrations of BL@B-SA50 were cultured with HT-29 cells in the absence or presence of H2O2 (200 μM) for 24 hours. Relative cell viabilities were tested by the 3-(4,5-dimethylthiazol-2-yl)-2,5-diphenyltetrazolium bromide (MTT) assay.
# (§2) The concentrations of nanomaterials in different measurements of MTT assays were 0.625 μg/mL while that for confocal microscopy and flow cytometry were both 2.5 μg/mL. The viabilities of HT-29 cells without treatment were defined as 100%, while the ROS content of HT-29 cells without treatment was defined as 1.
# HT-29 cells [2] = system: HT-29 cells
# Experimental: as §1, §2
substance,measurement,setting,value
Bifidobacterium longum [BL],viability of HT29 cells exposed to H2O2,HT-29 cells [1],also enhanced
same,relative cell viability of HT29 cells (cytotoxicity / growth),HT-29 cells [2],could promote the growth of HT29
